Test results published in US11225503B2, “Crystobactamides” (HELMHOLTZ-ZENTRUM FÜR INFEKTIONSFORSCHUNG GMBH, priority 2013, dated 2022).
Bridge positions count the residues as written; N and C are the ends. Square brackets hold non-standard residues; d marks the D form. Peptide text beside a SMILES is read from it. * marks the point of attachment. Ileψ(thiazoline)Cys = CC[C@H](C)[C@H](N)C1=N[C@H](C(=O)*)CS1; dOrn = NCCC[C@@H](N)C(=O)O

test system: Cystobacter velatus MCy8071; experiment: Antibiotic resistance of the producer strain; type: cell-based; conditions: final concentration of all antibiotics 50 μg ml^−1
Protocol: MCy8071 is resistant against the following antibiotics: ampicillin, gentamycin, hygromycin, polymycin, bacitracin, spectinomycin, neomycin, and fusidinic acid. Weak growth is possible with cephalosporin and kasugamycin and no growth is possible with thiostrepton, trimethoprin, kanamycin, and oxytetracycline (final concentration of all antibiotics was adjusted to 50 μg ml^−1).

Row | Compound | growth of strain MCy8071 in presence of the antibiotic
1 | CC(=O)O[C@H]1C[C@@]2(C)[C@@H](C[C@@H](O)[C@H]3[C@@]4(C)CC[C@@H](O)[C@@H](C)[C@@H]4CC[C@@]32C)/C1=C(\CCC=C(C)C)C(=O)O [fusidinic acid] | resistant
2 | CN[C@@H]1[C@H](O)[C@H](NC)[C@H]2O[C@@]3(O)C(=O)C[C@@H](C)O[C@H]3O[C@@H]2[C@H]1O [spectinomycin] | resistant
3 | neomycin | resistant
4 | C=C(NC(=O)C(=C)NC(=O)c1csc(C2=N[C@@H]3c4csc(n4)[C@H]4NC(=O)c5csc(n5)[C@H]([C@](C)(O)[C@@H](C)O)NC(=O)[C@H]5CSC(=N5)/C(=C/C)NC(=O)[C@H]([C@@H](C)O)NC(=O)c5csc(n5)[C@]3(CC2)NC(=O)[C@H](C)NC(=O)C(=C)NC(=O)[C@H](C)NC(=O)[C@H]([C@@H](C)CC)N[C@@H]2C=Cc3c([C@H](C)O)cc(nc3[C@H]2O)C(=O)O[C@@H]4C)n1)C(N)=O [thiostrepton] | no growth
5 | gentamycin | resistant
6 | COc1cc(Cc2cnc(N)nc2N)cc(OC)c1OC [trimethoprin] | no growth
7 | CC1(C)S[C@@H]2[C@H](NC(=O)[C@H](N)c3ccccc3)C(=O)N2[C@H]1C(=O)O [ampicillin] | resistant
8 | CC[C@H](C)[C@H](N)C1=N[C@H](C(=O)N[C@@H](CC(C)C)C(=O)N[C@H](CCC(=O)O)C(=O)N[C@H](C(=O)N[C@H]2CCCCNC(=O)[C@H](CC(N)=O)NC(=O)[C@@H](CC(=O)O)NC(=O)[C@H](Cc3cnc[nH]3)NC(=O)[C@@H](Cc3ccccc3)NC(=O)[C@H]([C@@H](C)CC)NC(=O)[C@@H](CCCN)NC2=O)[C@@H](C)CC)CS1 [bacitracin] ({Ileψ(thiazoline)Cys}-L[dE]IK[dOrn]I[dF]H[dD]N; lactam 4-C) | resistant
9 | polymycin | resistant
10 | C[C@H]1O[C@H](O[C@H]2[C@H](O)[C@@H](O)[C@@H](O)[C@H](O)[C@@H]2O)[C@@H](N)C[C@@H]1NC(=N)C(=O)O [kasugamycin] | Weak growth
